Assay results taken from US20240415915A1, “TRADITIONAL CHINESE MEDICINE FERMENTED PREPARATION FOR PREVENTING AND TREATING GOUT, ITS PREPARATION METHOD AND APPLICATION” (priority 2023, published 2024).

System: mice with hyperuricemia
Experiment: Effect on serum uric acid (UA) levels in mice with hyperuricemia
Type: in vivo
Settings: 0.02 g/kg orally once a day, 7 days; hypoxanthine + potassium oxonate model; model group 768.30, blank 145.80
Text: 60 mice (each mouse with a weight of (20±2) g) are taken and randomly divided into 6 groups, with 10 mice in each group, denoted as a blank group, a model group, a benzbromarone group, a high dose traditional Chinese medicine fermented preparation group, a medium dose traditional Chinese medicine fermented preparation group, and a low dose traditional Chinese medicine fermented preparation group. After 5 days of adaptive breeding, except for the blank group (injected with an equal volume of physiological saline), the mice in other groups are injected intraperitoneally with 0.3 g/kg/mouse of hypoxanthine +0.05 g/kg/mouse of potassium oxonate (i.e., oxonic acid potassium salt) daily for model replication, for 7 consecutive days. At the same time, the mice in the benzbromarone group are administered orally at a dose of 0.02 g/kg/mouse once a day, the mice in the high, medium and low dose traditional Chinese medicine fermented preparation groups are administered orally at a dose of 2 mL/kg/mouse, 1 mL/kg/mouse, and 0.5 mL/kg/mouse once, respectively, while the mice in the blank group and the model group are given physiological saline (1 mL/kg) orally, for 7 consecutive days. After 7 days, tail vein blood is collected from the mice in all groups, and then centrifuged to separate […] to obtain serum, the serum is taken to measure serum UA levels.

## CCc1oc2ccccc2c1C(=O)c1cc(Br)c(O)c(Br)c1 [Benzbromarone, benzbromarone]
  Serum UA level: 302.30 µmol/L
